Source: patent US20220280516A1, “PEGYLATED HEPARIN NANOMICELLE LOADED WITH CARBOXYLIC ACID ANTI-TUMOR DRUG AND PREPARATION METHOD THEREOF” (priority 2020, published 2022)

Test system: 5T33 multiple myeloma cells
Test: In vivo experiment of multiple myeloma
Conditions: 5T33 myeloma mice, subcutaneous
Procedure: Thirty 6-week-old mice are divided into three groups, which are administrated with free bendamustine (Group I), PEG-Py-HP-bendamustine (Group II) and PEG-Mal-HP-bendamustine (Group III) respectively. Male and female animals in each group are halved, and there is no statistically significant difference in body weight among animals in each group. The dosage of free bendamustine group is 0.1 ml/kg body weight/day, and that of PEG-Py-HP-bendamustine group and PEG-Mal-HP-bendamustine group is 20 mg/kg (body weight/day).
One week after injection of 1,000,000 5T33 multiple myeloma cells into the tail veins of mice, drugs are administered subcutaneously according to the above scheme, for three times a week. During the administration period, the animals are weighed every day, and the dosage on that day is determined according to the weight, and the animals are continuously administered until the death of the mice. The venous blood of mice is collected and stored every week, and the time of death of mice is recorded.

Cn1c(CCCC(=O)O)nc2cc(N(CCCl)CCCl)ccc21 [free bendamustine, Bendamustine]
Average survival days of mice after drug injection (three times a week until death): 36 days
Average tumor load in serum of mice after drug injection (1 day): 132.2 µg/mL
Average tumor load in serum of mice after drug injection (8 days): 201.5 µg/mL
Average tumor load in serum of mice after drug injection (15 days): 321.2 µg/mL
Average tumor load in serum of mice after drug injection (22 days): 608.4 µg/mL
Average tumor load in serum of mice after drug injection (29 days): 873.3 µg/mL
Average tumor load in serum of mice after drug injection (36 days): 946.8 µg/mL
